According to patent publication US20240246908A1 (ORION CORPORATION, priority 2021, published 2024):

Tested on: YAP-TEAD
Test: TEAD inhibition, Hippo Pathway TEAD Reporter MCF-7 luciferase assay
Assay type: cell-based
Settings: Homo sapiens, MCF7, 24 h, Hippo Pathway TEAD Reporter MCF-7 cells, luciferase activity after 24 h; read-out: IC50 of the test compounds on YAP-TEAD inhibition (Group)
Experimental: TEAD inhibition was assayed using Hippo Pathway TEAD Reporter—MCF-7 cell line (BPS Bioscience, Catalog #: 60618) which contains firefly luciferase gene under the control of TEAD responsive elements. In the cell line, YAP1 remains in the nucleus inducing constitutive expression of luciferase reporter. Amount of expressed luciferase was detected using ONE-Glo Luciferase Assay System (Promega) and measuring plates with Enspire Multimode Plate Reader (PerkinElmer).
Hippo Pathway TEAD Reporter—MCF-7 cells were plated on white/clear Poly-D-Lysine coated 384 plates (Corning #356660) at the density of 8500 cells/well. Next day test compounds (11 concentrations with 4 replicates) and DMSO control (0.1%) were added to the plate. After 24 h cells were lysed and luciferase activity was measured. The half maximal inhibitory concentration (IC50) of the test compounds on YAP-TEAD inhibition was determined.

SMILES	IC50
COc1ccc(OC2CCC(F)(F)CC2)cc1NC(=O)C1CCC(=O)N1C (centres unmarked) [Compound 247, N-(5-((4,4-Difluorocyclohexyl)oxy)-2-methoxyphenyl)-1-methyl-5-oxopyrrolidine-2-carboxamide]	50 to 300 nM
COCC(=O)N1C(=O)CCC1C(=O)Nc1cc(Oc2cc(C(F)(F)F)ccn2)ccc1OC (centres unmarked) [Compound 331, N-(2-Methoxy-5-((4-(trifluoromethyl)-pyridin-2-yl)oxy)phenyl)-1-(2-methoxyacetyl)-5-oxopyrrolidine-2-carboxamide]	50 to 300 nM
COc1ccc(Oc2ccc(C(F)(F)F)c(F)n2)cc1NC(=O)[C@H]1CCC(=O)N1C [Compound 402, (R)—N-(5-((6-Fluoro-5-(trifluoromethyl)pyridin-2-yl)oxy)-2-methoxyphenyl)-1-methyl-5-oxopyrrolidine-2-carboxamide]	< 50 nM
COc1ccc(/C=C/C2CCOCC2)cc1NC(=O)C1CCC(=O)N1 (centres unmarked) [Compound 65, (E)-N-(2-Methoxy-5-(2-(tetrahydro-2H-pyran-4-yl)vinyl)phenyl)-5-oxo-pyrrolidine-2-carboxamide]	301 to 2000 nM
O=C(Nc1cc(Oc2ccc(C(F)(F)F)cn2)cc2c1OCC2)C1CNC(=O)N1C1CC1 (centres unmarked) [Compound 164, 3-Cyclopropyl-2-oxo-N-(5-((5-(trifluoromethyl)pyridin-2-yl)oxy)-2,3-dihydro-benzofuran-7-yl)imidazolidine-4-carboxamide]	< 50 nM
COc1ccc(OC2CCC(F)(F)CC2)cc1NC(=O)C1COC(=O)N1C (centres unmarked) [Compound 104, N-(5-((4,4-Difluorocyclohexyl)oxy)-2-methoxyphenyl)-3-methyl-2-oxo-oxazolidine-4-carboxamide]	50 to 300 nM
CCN1C(=O)NCC1C(=O)Nc1cc(Oc2ccc(C(F)(F)F)cn2)cc2c1OCC2 (centres unmarked) [Compound 167, 3-Ethyl-2-oxo-N-(5-((5-(trifluoromethyl)pyridin-2-yl)oxy)-2,3-dihydrobenzo-furan-7-yl)imidazolidine-4-carboxamide]	< 50 nM
CN1C(=O)CCC1C(=O)Nc1cc(Oc2ccc(F)c(F)c2)cc2c1OCCO2 (centres unmarked) [Compound 240, N-(7-(3,4-Difluorophenoxy)-2,3-dihydrobenzo[b][1,4]dioxin-5-yl)-1-methyl-5-oxopyrrolidine-2-carboxamide]	< 50 nM

The next lines start with the values.

IC50	SMILES
< 50 nM	COc1ccc(Oc2ccc(C(F)(F)F)cc2)cc1NC(=O)C1CCC(=O)N1C(=O)C1CCC(=O)N1C (centres unmarked) [Compound 230, N-(2-Methoxy-5-(4-(trifluoromethyl)phenoxy)phenyl)-1-(1-methyl-5-oxo-pyrrolidine-2-carbonyl)-5-oxopyrrolidine-2-carboxamide]
< 50 nM	COCCN1C(=O)CCC1C(=O)Nc1cc(Oc2ccc(C(F)(F)F)cc2)ccc1OC (centres unmarked) [Compound 318, N-(2-Methoxy-5-(4-(trifluoromethyl)phenoxy)phenyl)-1-(2-methoxyethyl)-5-oxopyrrolidine-2-carboxamide]
50 to 300 nM	COc1ccc(Oc2ccc(C(F)(F)F)cc2)cc1NC(=O)[C@@H]1CCCN1CC(N)=O [Compound 337, (S)-1-(2-Amino-2-oxoethyl)-N-(2-methoxy-5-(4-(trifluoromethyl)phenoxy)-phenyl)pyrrolidine-2-carboxamide]
< 50 nM	O=C1CCC(C(=O)Nc2cc(Oc3ccc(C(F)(F)F)cc3)ccc2F)N1 (centres unmarked) [Compound 76, N-(2-Fluoro-5-(4-(trifluoromethyl)phenoxy)phenyl)-5-oxopyrrolidine-2-carboxamide]
301 to 2000 nM	COc1ccc(Oc2cccc(C(F)(F)F)c2)cc1NC(=O)C1CN(C(C)=O)C1 [Compound 289, 1-Acetyl-N-(2-methoxy-5-(3-(trifluoromethyl)phenoxy)phenyl)azetidine-3-carboxamide]
301 to 2000 nM	CN1C(=O)CCC1C(=O)Nc1cc(Oc2ccc(OC(F)(F)F)cc2)ccc1Cl (centres unmarked) [Compound 329, N-(2-Chloro-5-(4-(trifluoromethoxy)phenoxy)phenyl)-1-methyl-5-oxo-pyrrolidine-2-carboxamide]
